One test deals with T1, AIF/CHCHD4 (Homo sapiens, UniProt O95831).
T1 construct: The AIF103-613 protein (AIF protein fragment 103-613) and CHCHD4 protein were produced in BL21 + DE3 bacteria; made in house; host or cells: E. coli BL21 + DE3 (RIPL)
The experiment in a line: AlphaScreen (ALPHA) assay of the AIF103-613/CHCHD4 interaction. Format: binding. An excerpt:
This method comprises the use: • of the AIF103-613 and CHCHD4 proteins previously produced; • of an AlphaScreen® kit (PerkinElmer) comprising donor beads and acceptor beads capable of conjugating to the AIF and CHCHD4 proteins; • of a positive control: the N27 peptide (corresponding to the 27 amino acids of the N-ter end of the CHCHD4 protein, as described in Hangen et al., 2015); • of a negative control: 0.1% bovine serum albumin (BSA) solution in phosphate buffered saline (PBS); • of a library of compounds to be tested: the Prestwick chemical compound library (Prestwick Chemical Library®) .
The ALPHA assay was first of all carried out at high throughput, using 384-well white microplates (Greiner, reference 781075), using 25 µl of total volume per well. The proteins, the positive control and the beads were diluted in a 0.1% BSA/PBS solution. All the distributions were carried out with an electronic multipipet, then the plates were centrifuged (200 g, 1 min). The plates were hermetically closed and incubated in the dark in a room at 23° C.
A library of 1280 small molecules, supplied by Prestwick Chemicals (Prestwick Chemical Library®) was screened. This library comprises compounds with various chemical and pharmacological properties, which are already approved by the health authorities, such as the FDA (Food and Drug Administration) or the EMEA (European Medicines Evaluation Agency). Each compound of the library is diluted in a 0.1% DMSO solution and used at a concentration of 10 µM. First of all, 5 µl of compound at […], of N27 at 3 µM (positive control) or of 0.1% BSA/PBS (negative control) were added to the wells. Secondly, 5 µl of AIF103-613 proteins were incubated with the compounds for 20 min before the addition of 5 µl of CHCHD4 for 2 h. Thirdly, 10 µl of a mixture of donor beads and acceptor beads at […] were incubated for 3 h. The analysis of the results was carried out by means of an EnSpire® multimode plate reader (PerkinElmer).
For each 384-well plate, 16 wells correspond to the positive control and 16 wells correspond to the negative control. The positive control corresponds to the measurement of the interaction of the AIF103-613 and CHCHD4 proteins in the presence of the N27 peptide (equivalent to the minimal signal). The negative control corresponds to the measurement of the interaction of the AIF103-613 and CHCHD4 proteins in the presence of the buffer (0.1% BSA/PBS) (equivalent to the maximum signal).
Following the high-throughput screening, the compounds are selected if the signal obtained in the presence of the compound is less than the following threshold TH:
For each compound previously selected, the ALPHA assay is repeated manually using another batch of powder of the compounds.
Each compound is tested at 10 µM and 30 µM due to the Hook effect particular to the ALPHAscreen technology and in order to select the compounds giving a signal located in the ascending part of the Hook bell and therefore active at low dose in a drug development perspective.
The compound is selected if: • the signal obtained in the presence of the compound is less than the threshold TH as described above; and • the signal obtained at 30 µM is less than the signal obtained at 10 µM.
In addition, for each compound thus selected, the dose-effect relationship of the compound is determined. This makes it possible to determine the median inhibitory concentration (IC50) of said compound.

Test [1] concerns A549 non-small-cell lung cancer cells. The experiment in a line: Cytotoxicity by lactate dehydrogenase (LDH) release in A549 cells. Format: cell-based, human. Particulars: A549, 3 h treatment; lowest dose tested for which a toxicity greater than 20% was measured. How it is done:
The effect of the compounds on the metabolism of a non-small-cell lung cancer cell line (A549) was tested using the Seahorse technology (XFe96, Agilent) and the cell death was evaluated by measuring the release of lactate dehydrogenase (LDH, Promega). The cells seeded into 96-well microplates (20 000 cells/well) were treated with the compounds as a dose response (0.03; 0.1; 0.3; 1; 3; 10 µM) for 3 h in serum-free DMEM medium and then mitochondrial respiration (OXPHOS) and glycolysis were measured in real time. At the end of the experiment, the culture supernatant was removed in order to analyze the cell death, and the number of cells was determined by counting, after labelling the cells with DAPI, using a fluorescence microscope (Zeiss). The number of cells per well at the end of the experiment was then used to normalize the results obtained by Seahorse.
The compound concentration indicated in the “toxicity” column represents the lowest dose tested for which a toxicity greater than 20% was measured.

For the next test, the target named is T2, AIF103-613/CHCHD4 (Homo sapiens, UniProt O95831).
T2 construct: The AIF103-613 protein (AIF protein fragment 103-613) and CHCHD4 protein were produced in BL21 + DE3 bacteria; made in house; host or cells: E. coli BL21 + DE3 (RIPL)
T2 sequence (O95831 103-613 limits assumed): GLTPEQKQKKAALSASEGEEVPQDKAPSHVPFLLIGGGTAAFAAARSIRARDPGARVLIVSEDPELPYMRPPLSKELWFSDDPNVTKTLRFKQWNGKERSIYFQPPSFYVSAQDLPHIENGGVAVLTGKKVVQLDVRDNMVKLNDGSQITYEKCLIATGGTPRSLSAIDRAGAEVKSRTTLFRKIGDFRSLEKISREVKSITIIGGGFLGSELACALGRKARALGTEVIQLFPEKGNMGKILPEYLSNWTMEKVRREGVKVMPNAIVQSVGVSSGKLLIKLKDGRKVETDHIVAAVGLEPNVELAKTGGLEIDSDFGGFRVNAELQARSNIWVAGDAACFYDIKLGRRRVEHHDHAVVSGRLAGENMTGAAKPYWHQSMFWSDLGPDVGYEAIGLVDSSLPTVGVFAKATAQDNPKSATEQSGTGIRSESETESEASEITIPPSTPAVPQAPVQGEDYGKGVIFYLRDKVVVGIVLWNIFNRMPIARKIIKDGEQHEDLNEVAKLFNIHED
The experiment in a line: Surface plasmon resonance (SPR, Biacore) assay of the AIF/CHCHD4 interaction. Format: binding. Particulars: compound preincubated 20 min with AIF, injected onto immobilized CHCHD4; criterion at least 50% of the inhibition obtained with N27 peptide. Here is the method: FIG. 3: SPR analysis of the compounds identified by Alphascreen. (A) SPR validation of thioridazine and of mitoxantrone, by means of the […], as inhibitors of the AIF103-613/CHCHD4 interaction. The compounds at 10 µM were incubated for 20 min with AIF in DPBS at pH 7.4 at ambient temperature. Then, the mixture was then injected for 3 minutes at a rate of 30 µl per minute onto the CHCHD4 protein. The N27 peptide at 3 µM was used as a […]. (B) Surface plasmon resonance (SPR) sensorgrams, making it possible to follow the binding of AIF103-613 to CHCHD4 in the presence of thioridazine hydrochloride or of mitoxantrone dihydrochloride. The thioridazine hydrochloride and the mitoxantrone dihydrochloride were tested at increasing concentrations ranging from 0.5 µM to 50 µM.
Some of the compounds identified by means of the Alpha assay as described above were tested by surface plasmon resonance (Biacore™ T100, GE Healthcare Life Sciences). The CHCHD4 protein was immobilized covalently on a dextran matrix comprising COOH functional carboxyl groups (Series S CM5® sensor chip, GE Healthcare Life Sciences, 29149603). […]
The sensorgrams were analyzed using the BIAevaluation software (Version 2.0.4).
The inhibition of the interaction of the AIF and CHCHD4 proteins by thioridazine and mitoxantrone was analyzed by means of a surface plasmon resonance assay (cf. FIG. 3). […]

The target of test [2] is T3, AIF103-613 protein (AIF protein fragment 103-613) (human, UniProt O95831 103-613).
T3 construct: also called apoptosis-inducing factor
T3 sequence (O95831 103-613): as the sequence (O95831 103-613 limits assumed) above
The experiment in a line: AlphaScreen cross-titration. On the technique in general: Bead proximity is the source of the signal in Alpha formats.

[3] abbreviates: obtained manually using the Alphascreen assay, read-out: IC50 AIF/CHCHD4.

Structures can show the parent of a compound that is named as a salt. Where two headings read alike, the source gives them in different places.

T1 sequence (O95831 103-613 limits assumed): as above

For `COC(=O)C1=C(C)NC(C)=C(C(=O)OC2CCCN(Cc3ccccc3)C2)[C@@H]1c1cccc([N+](=O)[O-])c1` (stereo partly shown) [Benidipine hydrochloride], at AIF/CHCHD4 (setting [3]), the IC50 came to 8 µM. In test [1], this molecule registered a Cellular toxicity of 10 µM.
With `COc1cc(-c2ccc(N=Nc3ccc4c(S(=O)(=O)O)cc(S(=O)(=O)O)c(N)c4c3O)c(OC)c2)ccc1N=Nc1ccc2c(S(=O)(=O)O)cc(S(=O)(=O)O)c(N)c2c1O` [Chicago sky blue 6B], at AIF/CHCHD4 (setting [3]), the IC50 worked out at 1.44 µM.
For `CCN(CC)C(=S)SSC(=S)N(CC)CC` [Disulfiram], the IC50 on AIF/CHCHD4 (setting [3]) is 0.415 µM. In test [1], the Cellular toxicity is recorded as 3 µM.
In the case of `O=C1OC2(c3cc(Br)c(O)cc3Oc3c2cc(Br)c(O)[c]3[Hg][OH])c2ccccc21` (stereo not shown) [Merbromine], the IC50 at AIF/CHCHD4 was determined as 0.169 µM.
In the case of `CO[C@H]1/C=C/O[C@@]2(C)Oc3c(C)c(O)c4c(O)c(c(/C=N/N5CCN(C6CCCC6)CC5)c(O)c4c3C2=O)NC(=O)/C(C)=C\C=C\[C@H](C)[C@H](O)[C@@H](C)[C@@H](O)[C@@H](C)[C@H](OC(C)=O)[C@@H]1C` [Rifapentine], the IC50 on AIF/CHCHD4 (setting [3]) is 4.8 µM. In test [1], this molecule yielded a Cellular toxicity of 10 µM.
On to `NCCNCCNCCNCCN` [Tetraethylenepentamine pentahydrochloride], for which the IC50 on AIF/CHCHD4 (setting [3]) was found to be 9 µM. Further, in test [1], the Cellular toxicity was 10 µM.
The corresponding values for `CCSc1ccc2c(c1)N(CCCN1CCN(C)CC1)c1ccccc1S2.O=C(O)CC(O)C(=O)O.O=C(O)CC(O)C(=O)O` [Thiethylperazine dimalate] are 10.6 µM and 10 µM.
For `CSc1ccc2c(c1)N(CCC1CCCCN1C)c1ccccc1S2` (stereo not shown) [Thioridazine hydrochloride], the IC50 on AIF/CHCHD4 (setting [3]) turned out to be 24 µM. For the same molecule, the “inhibition of the interaction between the AIF and CHCHD4 proteins (SPR)” value against AIF103-613/CHCHD4 was “capable of inhibiting the interaction”. The Cellular toxicity in test [1] stood at 1 µM.
Bromocriptine mesylate: the IC50 on AIF/CHCHD4 (setting [3]) amounted to 4.57 µM. The molecule further returned a Cellular toxicity in test [1] of 3 µM.
Regarding Mitoxantrone dihydrochloride, the IC50 at AIF/CHCHD4 (setting [3]) is 1.27 µM. At AIF103-613/CHCHD4, the “inhibition of the interaction between the AIF and CHCHD4 proteins (SPR)” value is recorded as “capable of inhibiting the interaction”. For the same molecule, the Cellular toxicity in test [1] worked out at 3 µM.
Consider Nisoldipine, for which, at AIF/CHCHD4 (setting [3]), the IC50 amounted to 12 µM.

B1: CHCHD4 protein (coiled-coil-helix-coiled-coil-helix domain containing 4) (other)
chain: MSYCRQEGKDRIIFVTKEDHETPSSAELVADDPNDPYEEHGLILPNGNINWNCPCLGGMASGPCGEQFKSAFSCFHYSTEEIKGSDCVDQFRAMQECMQKYPDLYPQEDEDEEEEREKKPAEQAEETAPIEATATKEEEGSS
notes: In SPR the protein was coupled covalently to a CM5 chip; also called MIA40; mitochondrial intermembrane space import and assembly protein 40
B1: the binding result in test [2] was “binds”.

These data come from patent US20230221321A1, “METHOD FOR IDENTIFYING COMPOUNDS USEFUL FOR THE TREATMENT OF CANCER” (UNIVERSITÉ PARIS-SACLAY, priority 2020, published 2023).
